≈ marks a conversion by molar mass, not a printed value.
Experiments:
Format in all cases: functional, organism-based
[1] = system: Mycobacterium tuberculosis; assay: Antitubercular activity against isoniazid-resistant Mycobacterium tuberculosis H37Rv INH-R1 harboring katG Y155 mutant after 5 days
[2] = system: Mycobacterium tuberculosis; assay: Antitubercular activity against rifampicin-resistant Mycobacterium tuberculosis H37Rv RIF-R1 harboring rpoB S522L mutant after 5 days
[3] = system: Mycobacterium tuberculosis; assay: Antitubercular activity against fluoroquinolone-resistant Mycobacterium tuberculosis H37Rv harboring gyrB D94N mutant after 5 days
[4] = system: Mycobacterium tuberculosis; assay: Antitubercular activity against isoniazid-resistant Mycobacterium tuberculosis INH-R2 ATCC 35822 after 5 days; conditions: INH-R2 ATCC 35822, 120 h
[5] = system: Mycobacterium tuberculosis; assay: Antitubercular activity against rifampicin-resistant Mycobacterium tuberculosis H37Rv RIF-R2 ATCC 35828 after 5 days; conditions: H37Rv RIF-R2 ATCC 35828, 120 h

Structure (SMILES)	MIC [1]	MIC [2]	MIC [3]	MIC [4]	MIC [5]	IC50 [1]	IC90 [1]	IC50 [2]	IC90 [2]	IC50 [3]	IC90 [3]	IC50 [4]	IC90 [4]	IC50 [5]	IC90 [5]
CC(O)(Cn1cnc([N+](=O)[O-])n1)c1ccc(-c2ccc(C#N)cc2)cc1 (stereo not given)	>200 µM	>200 µM	>200 µM	> 200 µM	> 200 µM	–	–	–	–	–	–	–	–	–	–
O=C(NCCCCn1cnc([N+](=O)[O-])n1)c1nc2ccccc2s1	11.1 µM (≈ 3.84 µg/mL)	8.9 µM (≈ 3.08 µg/mL)	8.2 µM (≈ 2.84 µg/mL)	7.9 µM (≈ 2.74 µg/mL)	7.9 µM (≈ 2.74 µg/mL)	–	–	–	–	–	–	–	–	–	–
O=C(Cn1cnc([N+](=O)[O-])n1)Nc1ccc(Cc2ccccc2)cc1	50 µM (≈ 16.9 µg/mL)	44 µM (≈ 14.8 µg/mL)	30 µM (≈ 10.1 µg/mL)	31 µM (≈ 10.5 µg/mL)	48 µM (≈ 16.2 µg/mL)	33 µM	47 µM	27 µM	40 µM	28 µM	32 µM	29 µM	37 µM	34 µM	44 µM
O=C(Cn1ccnc1[N+](=O)[O-])Nc1ccc(Oc2ccc(F)cc2)cc1	>200 µM	>200 µM	200 µM (≈ 71.3 µg/mL)	> 200 µM	> 200 µM	65 µM	> 100 µM	46 µM	> 100 µM	75 µM	190 µM	70 µM	> 100 µM	78 µM	> 200 µM
O=C(CCn1cnc([N+](=O)[O-])n1)Nc1ccc(Oc2ccc(Cl)cc2)cc1	46 µM (≈ 17.8 µg/mL)	24 µM (≈ 9.31 µg/mL)	40 µM (≈ 15.5 µg/mL)	31 µM (≈ 12 µg/mL)	29 µM (≈ 11.2 µg/mL)	25 µM	53 µM	15 µM	22 µM	24 µM	42 µM	18 µM	32 µM	17 µM	30 µM
O=C(Cn1cnc([N+](=O)[O-])n1)N1CCN(Cc2ccc(Cl)c(Cl)c2)CC1	14 µM (≈ 5.59 µg/mL)	7.7 µM (≈ 3.07 µg/mL)	12 µM (≈ 4.79 µg/mL)	12 µM (≈ 4.79 µg/mL)	12 µM (≈ 4.79 µg/mL)	9 µM	14 µM	4.9 µM	8.3 µM	7.4 µM	11 µM	7.3 µM	12 µM	9.4 µM	12 µM
O=C(Cn1ccnc1[N+](=O)[O-])Nc1ccc(Oc2ccccc2)cc1	>200 µM	>200 µM	>200 µM	> 200 µM	> 200 µM	75 µM	140 µM	84 µM	> 200 µM	74 µM	> 200 µM	80 µM	> 200 µM	110 µM	> 200 µM
O=C(CCn1cnc([N+](=O)[O-])n1)Nc1ccc(Oc2ccccc2)cc1	59 µM (≈ 20.8 µg/mL)	48 µM (≈ 17 µg/mL)	62 µM (≈ 21.9 µg/mL)	56 µM (≈ 19.8 µg/mL)	48 µM (≈ 17 µg/mL)	38 µM	71 µM	28 µM	42 µM	32 µM	68 µM	26 µM	53 µM	29 µM	40 µM
O=C(Cn1cnc([N+](=O)[O-])n1)N1CCN(C(c2ccccc2)c2ccc(Cl)cc2)CC1 (stereo not given)	79 µM (≈ 34.8 µg/mL)	42 µM (≈ 18.5 µg/mL)	72 µM (≈ 31.7 µg/mL)	45 µM (≈ 19.8 µg/mL)	71 µM (≈ 31.3 µg/mL)	48 µM	82 µM	27 µM	32 µM	46 µM	78 µM	29 µM	35 µM	47 µM	68 µM
O=C(CCn1cnc([N+](=O)[O-])n1)Nc1cccc(OCc2ccccc2)c1	6.2 µM (≈ 2.28 µg/mL)	3.6 µM (≈ 1.32 µg/mL)	6 µM (≈ 2.2 µg/mL)	5.7 µM (≈ 2.09 µg/mL)	5.6 µM (≈ 2.06 µg/mL)	4.5 µM	5.9 µM	2.2 µM	3.7 µM	3.4 µM	6.2 µM	3.2 µM	5.6 µM	4.1 µM	5.2 µM
O=C(Cn1cnc([N+](=O)[O-])n1)Nc1nc(-c2ccc(F)c(F)c2)cs1	50 µM (≈ 18.3 µg/mL)	39 µM (≈ 14.3 µg/mL)	48 µM (≈ 17.6 µg/mL)	49 µM (≈ 17.9 µg/mL)	45 µM (≈ 16.5 µg/mL)	32 µM	47 µM	25 µM	40 µM	31 µM	44 µM	31 µM	45 µM	30 µM	38 µM

— ChEMBL document CHEMBL4177599, “The antitubercular activity of various nitro(triazole/imidazole)-based compounds” (Bioorg Med Chem, 2017)
